From paper PMC5218480 (PLoS ONE, 2017)

Tested on: MV-4-11 cells
Assay: Gene expression microarray analysis (Affymetrix PrimeView) and GSEA
Assay type: cell-based, human
Design: RFU PODN (11730768_x_at) / Fold change /veh PODN (11730768_x_at) / RFU LINC00158 (11744669_a_at) / Fold change /veh LINC00158 (11744669_a_at) / RFU DUSP10 (11751237_a_at) / Fold change /veh DUSP10 (11751237_a_at) / RFU ID3 (11757404_x_at) / Fold change /veh ID3 (11757404_x_at) / RFU PLEKHG5 (11737974_s_at) / Fold change /veh PLEKHG5 (11737974_s_at) / RFU LRRC4B (11730491_at) / Fold change /veh LRRC4B (11730491_at) / RFU GIMAP4 (11747438_a_at) / Fold change /veh GIMAP4 (11747438_a_at) / RFU KRT8 (11758183_x_at) / Fold change /veh KRT8 (11758183_x_at) / RFU CNN1 (11734310_a_at) / Fold change /veh CNN1 (11734310_a_at) / RFU VPS37D (11726825_at) / Fold change /veh VPS37D (11726825_at) / RFU C10orf10 (11716522_x_at) / Fold change /veh C10orf10 (11716522_x_at) / RFU KIR2DL2 /// KIR2DL4 /// KIR2DL5A /// KIR2DL5B /// KIR2DS1 /// KIR2DS2 /// KIR2DS3 /// KIR2DS4 /// KIR3DL3 /// KIR3DL3 /// KIR3DS1 (11738374_at) / Fold change /veh KIR2DL2 /// KIR2DL4 /// KIR2DL5A /// KIR2DL5B /// KIR2DS1 /// KIR2DS2 /// KIR2DS3 /// KIR2DS4 /// KIR3DL3 /// KIR3DL3 /// KIR3DS1 (11738374_at) / RFU C1QL1 (11718748_at) / Fold change /veh C1QL1 (11718748_at) / RFU TMPRSS4 (11747572_a_at) / Fold change /veh TMPRSS4 (11747572_a_at) / RFU HAMP (11756126_x_at) / Fold change /veh HAMP (11756126_x_at) / RFU RNFT2 (11725882_a_at) / Fold change /veh RNFT2 (11725882_a_at) / RFU NR4A2 (11747474_a_at) / Fold change /veh NR4A2 (11747474_a_at) / RFU ABCC12 (11746883_a_at) / Fold change /veh ABCC12 (11746883_a_at) / RFU TMEM136 (11760407_x_at) / Fold change /veh TMEM136 (11760407_x_at) / RFU CLDN22 /// WWC2 (11732394_at) / Fold change /veh CLDN22 /// WWC2 (11732394_at) / RFU HLA-DPB1 (11760878_x_at) / Fold change /veh HLA-DPB1 (11760878_x_at) / RFU SPINT1 (11716480_a_at) / Fold change /veh SPINT1 (11716480_a_at) / RFU GAP43 (11754022_s_at) / Fold change /veh GAP43 (11754022_s_at) / RFU A4GNT (11735810_at) / Fold change /veh A4GNT (11735810_at) / RFU PRB3 (11715151_x_at) / Fold change /veh PRB3 (11715151_x_at) / RFU TUBB4B (11761932_at) / Fold change /veh TUBB4B (11761932_at) / RFU CAPN14 (11732068_a_at) / Fold change /veh CAPN14 (11732068_a_at) / RFU TMCC2 (11721928_a_at) / Fold change /veh TMCC2 (11721928_a_at) / RFU IRGQ (11745062_a_at) / Fold change /veh IRGQ (11745062_a_at) / RFU FAM174B (11720279_a_at) / Fold change /veh FAM174B (11720279_a_at) / RFU TMPRSS4 (11748680_a_at) / Fold change /veh TMPRSS4 (11748680_a_at) / RFU FAM212B (11763350_a_at) / Fold change /veh FAM212B (11763350_a_at) / RFU PLEKHG5 (11743358_a_at) / Fold change /veh PLEKHG5 (11743358_a_at) / RFU ZSCAN30 (11745921_a_at) / Fold change /veh ZSCAN30 (11745921_a_at) / RFU CMKLR1 (11741424_a_at) / Fold change /veh CMKLR1 (11741424_a_at) / RFU LOC101060620 /// MAPK8IP1 (11723275_at) / Fold change /veh LOC101060620 /// MAPK8IP1 (11723275_at) / RFU SPTSSB (11747773_x_at) / Fold change /veh SPTSSB (11747773_x_at) / RFU PRSS12 (11739890_at) / Fold change /veh PRSS12 (11739890_at) / RFU BIN1 (11741810_x_at) / Fold change /veh BIN1 (11741810_x_at) / RFU WNT11 (11732464_a_at) / Fold change /veh WNT11 (11732464_a_at) / RFU C10orf10 (11716521_a_at) / Fold change /veh C10orf10 (11716521_a_at) / RFU C5orf56 (11738089_at) / Fold change /veh C5orf56 (11738089_at) / RFU CYB561 (11721691_x_at) / Fold change /veh CYB561 (11721691_x_at) / RFU ANKRD19P (11752326_a_at) / Fold change /veh ANKRD19P (11752326_a_at) / RFU OR2T12 /// OR2T33 /// OR2T8 (11738714_s_at) / Fold change /veh OR2T12 /// OR2T33 /// OR2T8 (11738714_s_at) / RFU VCAN (11748164_a_at) / Fold change /veh VCAN (11748164_a_at) / RFU JSRP1 (11732532_at) / Fold change /veh JSRP1 (11732532_at) / RFU KRTAP10-11 (11738290_x_at) / Fold change /veh KRTAP10-11 (11738290_x_at) / RFU MYO3A (11730013_a_at) / Fold change /veh MYO3A (11730013_a_at) / RFU EBF3 (11725865_a_at) / Fold change /veh EBF3 (11725865_a_at) / RFU CAMK2N1 (11719241_x_at) / Fold change /veh CAMK2N1 (11719241_x_at) / RFU C5orf56 (11738088_a_at) / Fold change /veh C5orf56 (11738088_a_at) / RFU OLFML3 (11715873_a_at) / Fold change /veh OLFML3 (11715873_a_at) / RFU LOC100653217 /// NTM (11731650_a_at) / Fold change /veh LOC100653217 /// NTM (11731650_a_at) / RFU MAPK11 (11762145_a_at) / Fold change /veh MAPK11 (11762145_a_at) / RFU FIZ1 (11724087_x_at) / Fold change /veh FIZ1 (11724087_x_at) / RFU OASL (11726364_x_at) / Fold change /veh OASL (11726364_x_at) / RFU SOX15 (11748057_x_at) / Fold change /veh SOX15 (11748057_x_at) / RFU CD79A (11719716_a_at) / Fold change /veh CD79A (11719716_a_at) / RFU HIST1H1D (11736915_at) / Fold change /veh HIST1H1D (11736915_at) / RFU CASKIN2 (11723855_a_at) / Fold change /veh CASKIN2 (11723855_a_at) / RFU LOC730098 (11760151_x_at) / Fold change /veh LOC730098 (11760151_x_at) / RFU OR4N2 (11742367_at) / Fold change /veh OR4N2 (11742367_at) / RFU PRRT2 (11749266_a_at) / Fold change /veh PRRT2 (11749266_a_at) / RFU SNX32 (11753110_a_at) / Fold change /veh SNX32 (11753110_a_at) / RFU CDHR5 (11726645_a_at) / Fold change /veh CDHR5 (11726645_a_at) / RFU RCAN1 (11760418_a_at) / Fold change /veh RCAN1 (11760418_a_at) / RFU FAM167A (11723789_a_at) / Fold change /veh FAM167A (11723789_a_at) / RFU FAM26E (11764081_at) / Fold change /veh FAM26E (11764081_at) / RFU ISYNA1 (11749810_s_at) / Fold change /veh ISYNA1 (11749810_s_at) / RFU ACY1 (11761880_at) / Fold change /veh ACY1 (11761880_at) / RFU 11764098_at / Fold change /veh 11764098_at / RFU SAMD14 (11745864_x_at) / Fold change /veh SAMD14 (11745864_x_at) / RFU NPB (11741838_a_at) / Fold change /veh NPB (11741838_a_at) / RFU TMPRSS6 (11731388_a_at) / Fold change /veh TMPRSS6 (11731388_a_at) / RFU KRTAP10-2 (11738614_at) / Fold change /veh KRTAP10-2 (11738614_at) / RFU ARHGAP8 /// PRR5-ARHGAP8 (11727945_x_at) / Fold change /veh ARHGAP8 /// PRR5-ARHGAP8 (11727945_x_at) / RFU KRTAP5-7 /// NADSYN1 (11734609_at) / Fold change /veh KRTAP5-7 /// NADSYN1 (11734609_at) / RFU RASL12 (11751679_a_at) / Fold change /veh RASL12 (11751679_a_at) / RFU CDKN2B (11736163_a_at) / Fold change /veh CDKN2B (11736163_a_at) / RFU PRF1 (11729649_at) / Fold change /veh PRF1 (11729649_at) / RFU, ZNF638 /// ZNF638-IT1 / Fold change vs veh, ZNF638 /// ZNF638-IT1 / RFU, PANK3 / Fold change vs veh, PANK3 / RFU, SH3YL1 / Fold change vs veh, SH3YL1 / RFU, ZEB2 / Fold change vs veh, ZEB2 / RFU, NRIP1 / Fold change vs veh, NRIP1 / RFU, PTTG1IP / Fold change vs veh, PTTG1IP / RFU, CAPN2 / Fold change vs veh, CAPN2 / RFU, MED14 / Fold change vs veh, MED14 / RFU, SNORA58 / Fold change vs veh, SNORA58 / RFU, C1orf63 / Fold change vs veh, C1orf63 / RFU, LRRFIP1 / Fold change vs veh, LRRFIP1 / RFU, NDUFAF7 / Fold change vs veh, NDUFAF7 / RFU, SLC12A2 / Fold change vs veh, SLC12A2 / RFU, IBTK / Fold change vs veh, IBTK / RFU, ESF1 / Fold change vs veh, ESF1 / Fold change vs veh, TMEM50B / RFU, TAOK1 / Fold change vs veh, TAOK1 / RFU, ACBD3 / Fold change vs veh, ACBD3 / RFU, TMA16 / Fold change vs veh, TMA16 / RFU, RWDD3 / Fold change vs veh, RWDD3 / RFU, BCAT1 / Fold change vs veh, BCAT1 / RFU, EDEM3 / Fold change vs veh, EDEM3 / RFU, TMEM33 / Fold change vs veh, TMEM33 / RFU, WDR75 / Fold change vs veh, WDR75 / RFU, AHCTF1 / Fold change vs veh, AHCTF1 / RFU, TFRC / Fold change vs veh, TFRC / RFU, ZDHHC17 / Fold change vs veh, ZDHHC17 / RFU, NOM1 / Fold change vs veh, NOM1 / RFU, ARL8B / Fold change vs veh, ARL8B / RFU, ZBTB11 / Fold change vs veh, ZBTB11 / RFU, TAMM41 / Fold change vs veh, TAMM41 / RFU, KIAA1704 /// LOC100996395 / Fold change vs veh, KIAA1704 /// LOC100996395 / RFU, ING1 / Fold change vs veh, ING1 / RFU, TRMT61B / Fold change vs veh, TRMT61B / RFU, FUBP3 / Fold change vs veh, FUBP3 / RFU, TP53 / Fold change vs veh, TP53 / RFU, TNKS2 / Fold change vs veh, TNKS2 / RFU, ZFP14 / Fold change vs veh, ZFP14 / RFU, ACTR2 / Fold change vs veh, ACTR2 / RFU, PPP3R1 / Fold change vs veh, PPP3R1 / RFU, PIK3R1 / Fold change vs veh, PIK3R1 / RFU, HNRNPA1 / Fold change vs veh, HNRNPA1 / RFU, RNF170 / Fold change vs veh, RNF170 / RFU, ZNF28 / Fold change vs veh, ZNF28 / RFU, RNGTT / Fold change vs veh, RNGTT / RFU, OGT / Fold change vs veh, OGT / RFU, BRD1 / Fold change vs veh, BRD1 / RFU, MARS / Fold change vs veh, MARS / RFU, ZNF655 / Fold change vs veh, ZNF655 / RFU, FAHD1 / Fold change vs veh, FAHD1 / RFU, BDP1 / Fold change vs veh, BDP1 / RFU, LRRCC1 / Fold change vs veh, LRRCC1 / RFU, ARID1A / Fold change vs veh, ARID1A / RFU, ZNF146 / Fold change vs veh, ZNF146 / RFU, ZNF330 / Fold change vs veh, ZNF330 / RFU, GPN3 / Fold change vs veh, GPN3 / RFU, C9orf123 / Fold change vs veh, C9orf123 / RFU, N4BP2L2 / Fold change vs veh, N4BP2L2 / RFU, ARFIP1 / Fold change vs veh, ARFIP1 / RFU, FAM179B / Fold change vs veh, FAM179B / RFU, BCL10 / Fold change vs veh, BCL10 / RFU, UHRF1BP1L / Fold change vs veh, UHRF1BP1L / RFU, BET1 / Fold change vs veh, BET1 / RFU, CNOT2 / Fold change vs veh, CNOT2 / RFU, ZNF268 / Fold change vs veh, ZNF268 / Fold change vs veh, ZNF507 / RFU, DGCR2 / Fold change vs veh, DGCR2 / RFU, WDSUB1 / Fold change vs veh, WDSUB1 / Fold change vs veh, HSP90B1 /// MIR3652 / RFU, ADSS / Fold change vs veh, ADSS / RFU, GK / Fold change vs veh, GK / RFU, ZNF148 / Fold change vs veh, ZNF148 / RFU, TAF9 / Fold change vs veh, TAF9 / RFU, SLC1A5 / Fold change vs veh, SLC1A5 / RFU, SLMO2 / Fold change vs veh, SLMO2 / RFU, ABCC4 / Fold change vs veh, ABCC4 / RFU, LOC101060439 /// RAP1B / Fold change vs veh, LOC101060439 /// RAP1B / RFU, RFX7 / Fold change vs veh, RFX7 / RFU, GTPBP10 / Fold change vs veh, GTPBP10 / RFU, CNEP1R1 / Fold change vs veh, CNEP1R1 / RFU, BIVM-ERCC5 /// ERCC5 / Fold change vs veh, BIVM-ERCC5 /// ERCC5 / RFU, ILF3 / Fold change vs veh, ILF3 / RFU 11762660_at / Fold change /veh 11762660_at / RFU VCAN (11757783_s_at) / Fold change /veh VCAN (11757783_s_at) / RFU DDX43 (11728927_at) / Fold change /veh DDX43 (11728927_at) / RFU KRT8 (11758188_x_at) / Fold change /veh KRT8 (11758188_x_at) / RFU NKD1 (11759106_at) / Fold change /veh NKD1 (11759106_at) / RFU SRD5A1 (11742802_a_at) / Fold change /veh SRD5A1 (11742802_a_at) / RFU TPSAB1 /// TPSB2 (11721975_s_at) / Fold change /veh TPSAB1 /// TPSB2 (11721975_s_at) / RFU GSTM3 (11746129_a_at) / Fold change /veh GSTM3 (11746129_a_at) / RFU IL23R (11737362_x_at) / Fold change /veh IL23R (11737362_x_at) / RFU TMEM51 (11727254_a_at) / Fold change /veh TMEM51 (11727254_a_at) / RFU PIWIL2 (11732686_x_at) / Fold change /veh PIWIL2 (11732686_x_at) / RFU ORM1 (11744905_x_at) / Fold change /veh ORM1 (11744905_x_at) / RFU CCDC152 (11743942_at) / Fold change /veh CCDC152 (11743942_at) / RFU ECM1 (11717891_a_at) / Fold change /veh ECM1 (11717891_a_at) / RFU IL23R (11748794_a_at) / Fold change /veh IL23R (11748794_a_at) / RFU TNFAIP8L3 (11732012_x_at) / Fold change /veh TNFAIP8L3 (11732012_x_at) / RFU MBOAT4 (11741988_at) / Fold change /veh MBOAT4 (11741988_at) / RFU 11764193_at / Fold change /veh 11764193_at / RFU TMEM53 (11763286_at) / Fold change /veh TMEM53 (11763286_at) / RFU MAGEB2 (11727129_at) / Fold change /veh MAGEB2 (11727129_at) / RFU TMEM200A (11744735_a_at) / Fold change /veh TMEM200A (11744735_a_at) / RFU CCDC152 (11751479_a_at) / Fold change /veh CCDC152 (11751479_a_at) / RFU FAM211A (11726209_a_at) / Fold change /veh FAM211A (11726209_a_at) / RFU RGS16 (11746705_a_at) / Fold change /veh RGS16 (11746705_a_at) / RFU VCAN (11755009_s_at) / Fold change /veh VCAN (11755009_s_at) / RFU RHOB (11743442_s_at) / Fold change /veh RHOB (11743442_s_at) / RFU RGS16 (11720943_a_at) / Fold change /veh RGS16 (11720943_a_at) / RFU RGS16 (11720944_at) / Fold change /veh RGS16 (11720944_at) / RFU, VPS4B / Fold change vs veh, VPS4B / RFU, CREB1 / Fold change vs veh, CREB1 / RFU, DNAJC13 / Fold change vs veh, DNAJC13 / RFU, GNAQ / Fold change vs veh, GNAQ / RFU, CDK5R1 / Fold change vs veh, CDK5R1 / RFU, ZRANB3 / Fold change vs veh, ZRANB3 / RFU, CUL4A / Fold change vs veh, CUL4A / RFU, CCNY / Fold change vs veh, CCNY / RFU, UFL1 / Fold change vs veh, UFL1 / RFU, COG3 / Fold change vs veh, COG3 / RFU, DIAPH2 / Fold change vs veh, DIAPH2 / RFU, SKA2 / Fold change vs veh, SKA2 / RFU, AFF3 / Fold change vs veh, AFF3 / RFU, LMF1 / Fold change vs veh, LMF1 / RFU, IPO11 / Fold change vs veh, IPO11 / RFU, DFFB / Fold change vs veh, DFFB / RFU, FOXP1 / Fold change vs veh, FOXP1 / RFU, CARD8 / Fold change vs veh, CARD8 / RFU, STRN3 / Fold change vs veh, STRN3 / RFU, ADK / Fold change vs veh, ADK / RFU, RASSF2 / Fold change vs veh, RASSF2 / RFU, WIPF1 / Fold change vs veh, WIPF1 / RFU, LARP1B / Fold change vs veh, LARP1B / RFU, RASA1 / Fold change vs veh, RASA1 / RFU, RB1 / Fold change vs veh, RB1 / RFU, PPFIA1 / Fold change vs veh, PPFIA1 / RFU, MAT2A / Fold change vs veh, MAT2A / RFU, CCT5 / Fold change vs veh, CCT5 / RFU, WDR92 / Fold change vs veh, WDR92 / RFU, CUX1 / Fold change vs veh, CUX1 / RFU, TTC7A / Fold change vs veh, TTC7A / RFU, TMEM135 / Fold change vs veh, TMEM135 / RFU, DEPTOR / Fold change vs veh, DEPTOR / RFU, CPM / Fold change vs veh, CPM / RFU, DNAJB6 / Fold change vs veh, DNAJB6 / RFU, CACNA2D3 / Fold change vs veh, CACNA2D3 / RFU, DTX4 / Fold change vs veh, DTX4 / RFU, TFCP2 / Fold change vs veh, TFCP2 / RFU, GMCL1 /// GMCL1P1 / Fold change vs veh, GMCL1 /// GMCL1P1 / RFU, AEBP2 / Fold change vs veh, AEBP2 / RFU, SNHG1 /// SNORD22 /// SNORD25 /// SNORD26 /// SNORD27 /// SNORD28 /// SNORD29 /// SNORD31 / Fold change vs veh, SNHG1 /// SNORD22 /// SNORD25 /// SNORD26 /// SNORD27 /// SNORD28 /// SNORD29 /// SNORD31 / Fold change (Aza/veh), C12orf56 (ProbeSet 11735607_a_at) / Fold change (ACY-1035/veh), C12orf56 (ProbeSet 11735607_a_at) / Fold change (Aza/veh), FGFR1OP (ProbeSet 11751329_s_at) / Fold change (ACY-1035/veh), FGFR1OP (ProbeSet 11751329_s_at) / Fold change (Aza/veh), VPS36 (ProbeSet 11739960_a_at) / Fold change (ACY-1035/veh), VPS36 (ProbeSet 11739960_a_at) / RFU SYPL1 (11715823_x_at) / Fold change /veh SYPL1 (11715823_x_at) / RFU IGFBP7 (11715501_s_at) / Fold change /veh IGFBP7 (11715501_s_at) / RFU REEP3 (11722064_at) / Fold change /veh REEP3 (11722064_at) / RFU IGLL1 (11728026_x_at) / Fold change /veh IGLL1 (11728026_x_at): dose or concentration left out as unconfirmed
Details: ProbeSet 11732165_x_at; LIST D

Compound: Nc1ncn([C@@H]2O[C@H](CO)[C@@H](O)[C@H]2O)c(=O)n1 [azacitidine]
- Fold change vs veh, LMF1: 0.71
